Measured values reported in patent US20240335406A1, “COMPOUNDED COMPOSITIONS AND METHODS FOR TREATING PAIN” (CMPD Licensing, LLC, priority 2016, published 2024).
Structures can show the parent of a compound that is named as a salt.

Test: Potency test of the compounded topical solution of Example 1 (HPLC with UV/photodiode array detector)
Type: physicochemical
Conditions: for Measured: concentration of analyte in compounded topical solution of Example 1; for Potency: measured vs reported concentration, compounded topical solution of Example 1
Description: Diclofenac sodium topical solution, 1.5% (w/w), includes approximately 16.05 mg diclofenac sodium per mL. Accordingly, approximately 0.9167 mL of diclofenac sodium topical solution, 1.5% (w/w), was measured for every mL of compounded topical solution. […] The measured ingredients where combined in a beaker. The beaker was placed on a magnetic stirring plate and a stir bar was placed in the beaker and rotated at a speed to create a small vortex for 5 minutes. The stirred solution was then placed in containers.

## CCN(CC)CC(=O)Nc1c(C)cccc1C [Lidocaine HCl, Lidocaine Hydrochloride]
  Measured: 0.336%
  Potency: 101%

## O=C(O)Cc1ccccc1Nc1c(Cl)cccc1Cl [Diclofenac Sodium]
  Measured: 1.51%
  Potency: 103%
